Test results from patent publication US20260294885A1, “TREATMENT OF INFLAMMATORY CONDITIONS COMPRISING IMU-856” (IMMUNIC AG, priority 2023, published 2026).
Entries after “also recorded” stand apart in the source; their conditions may differ.

What was measured:
SIRT6 = SIRT6 (Homo sapiens, UniProt Q8N6T7); assay: SIRT6 deacetylation of acetylated H3K56 in a cellular system; format: cell-based
[1] = tested on: other members of the human SIRT protein family; assay: Selectivity over other members of the SIRT family; format: biochemical
claudin-2 = assay: Tight junction protein claudin-2 in a TEER model; format: cell-based, human
Excerpt: In one TEER model, tight junction (TJ)-related proteins were investigated, and a normalisation of TJ proteins (claudin (Cldn)-1 and claudin-2) was observed.

healthy subjects = assay: Phase I safety in healthy subjects (Parts A and B); format: in vivo, human
Experimental: (§1) In Part A, healthy subjects were randomised to single ascending doses of IMU-856 (10 mg to 160 mg) or placebo. In Part B healthy subjects were randomised to multiple once-daily doses of IMU-856 (40, 80, and 160 mg) or placebo for 14 days. Part C randomised patients with celiac disease who were on a gluten-free diet to multiple once-daily doses of IMU-856 (80 mg and 160 mg) or placebo for 28 days; a once-daily gluten challenge (6 g) was introduced on Day 14 and ended on Day 28. 71 healthy subjects were enrolled in Part A and B (N=19 placebo and N=52 IMU-856) and 43 patients with CelD in Part C (N=14 placebo; N=14 for 80 mg, and N=15 for 160 mg). In Parts A and B, treatment-emergent adverse events (TEAEs) occurred in 24 (73%) and 15 (79%) of subjects receiving any dose of IMU-856 compared to 6 (50%) and 5 (71%) with placebo, respectively. […] In Part C, the most common adverse events with any dose of IMU-856 by preferred term were headache (13 [45%]), nausea (9 [31%]), diarrhoea (8 [28%]), and abdominal distension (7 [24%]). […] In Part C, the mean change in villous height from baseline to Day 29 with 80 mg and 160 mg was −20.9±34.8 μm, and −22.5±51.1 μm, respectively, and −60.3±52.2 μm with placebo. […] Mean change in plasma citrulline increased with 80 mg and 160 mg from baseline to Day 14 (2.4±6.2 and 6.1±5.9 μmol/L, respectively) and from baseline to Day 29 (2.8±7.6 and 2.2±5.3 μmol/L, respectively), but not with placebo (−2.7±5.6 and −4.0±6.5 μmol/L). […] Mean increase in zinc levels from baseline to Day 29 with 80 mg and 160 mg were 0.3±1.4 and 0.9±2.1 μmol/L compared to a mean decrease in placebo (−0.9±2.1 μmol/L). Gluten-induced symptoms were also attenuated by IMU-856.

[2] = tested on: healthy subjects and patients with CelD; assay: Clinical safety, whole study; format: in vivo, human
Experimental: as §1

[3] = Clinical pharmacokinetics; format: in vivo, human
Experimental: as §1

[4] = tested on: patients with celiac disease; assay: Duodenal biopsy histology with gluten challenge (villous height, Vh:Cd, Q-MARSH), Part C; format: in vivo, human; conditions: for reduction in villous height: two weeks of 6 g/day gluten challenge; for mean change in villous height: baseline to Day 29, gluten challenge 6 g/day
Experimental: as §1
FIG. 1 illustrates the flow chart of part C in celiac disease (CelD) designed as proof-of-concept study with a gluten challenge trial. Part C was planned to include a well-controlled celiac disease patient population: The patients were 100% seronegative, indicating absence of ongoing substantial gluten exposure and was performed at sites in Australia and New Zealand. Part C was designed to assess safety, tolerability and pharmacokinetics of IMU-856 and measured also histologic changes, blood biomarkers, nutrient uptake and disease-related symptoms.

plasma citrulline = assay: Plasma citrulline, Part C; format: in vivo, human
Experimental: as §1
Also, biomarker response upon treatment of CelD with IMU-856 was assessed. […] A wide inter-individual range of IL-2 response leads to large SD, especially in the placebo group. […]

IL-2 = assay: Serum IL-2 release on gluten challenge, Part C; format: in vivo, human; conditions: first day of gluten challenge (Day 14)
Experimental: Also, biomarker response upon treatment of CelD with IMU-856 was assessed. […] A wide inter-individual range of IL-2 response leads to large SD, especially in the placebo group. The inter-individual variance regarding IL-2 response decreases with increasing dose levels as illustrated in FIG. 8 (N=39/43 included in IL-2 analysis set. 3 patients not included in this analysis due to early termination and 1 incomplete IL-2 sampling due to site error. Methods used for IL-2 analysis: Milliplex® Human High Sensitivity T Cell Magnetic Bead Panel, 3 plex (Luminex®) and Simoa® CorPlex™ Human IL-2 Kit (Quanterix)).
FIG. 8 illustrates the mean absolute change and maximum change in serum IL-2 (in pg/mL) from pre-gluten to 4 hours post-gluten on first day of gluten challenge (IL: interleukin; SD: standard deviation).

[5] = tested on: patients with celiac disease; assay: Mean corpuscular hemoglobin concentration, Part C; format: in vivo, human; conditions: Baseline to Day 29
Excerpt: Since hemoglobin is the molecule to which oxygen attaches, MCHC is a measure of the average oxygen-carrying capacity of the red blood cells in circulating the body (https://www.verywellhealth.com/mean-cell-hemoglobin-concentration-4584155).

[6] = Part A, any single dose (10 mg to 160 mg)
[7] = Part B, any dose (40, 80, 160 mg once daily, 14 days)

SIRT6, sequence (Q8N6T7 whole entry): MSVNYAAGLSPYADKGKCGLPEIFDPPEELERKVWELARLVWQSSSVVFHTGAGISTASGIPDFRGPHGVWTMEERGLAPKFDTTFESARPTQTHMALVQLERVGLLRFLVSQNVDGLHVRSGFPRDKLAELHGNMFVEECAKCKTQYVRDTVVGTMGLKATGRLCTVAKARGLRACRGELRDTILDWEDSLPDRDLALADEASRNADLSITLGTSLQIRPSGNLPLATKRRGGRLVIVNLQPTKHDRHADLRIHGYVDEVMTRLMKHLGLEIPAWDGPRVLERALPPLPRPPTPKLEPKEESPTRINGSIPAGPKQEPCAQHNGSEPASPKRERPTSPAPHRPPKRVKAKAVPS

## Cn1c(COc2cc(C(F)(F)F)ccn2)nnc1[C@H]1CC[C@H](c2cnn([C@H]3CC[C@H](N4CC5(CCO5)C4)CC3)c2)CC1 [IMU-856, 6-(trans-4-(4-(trans-4-(4-methyl-5-(((4-(trifluoromethyl)pyridin-2-yl)oxy)methyl)-4H-1,2,4-triazol-3-yl)cyclohexyl)-1H-pyrazol-1-yl)cyclohexyl)-1-oxa-6-azaspiro[3.3]heptane]
SIRT6
  deacetylation of H3K56: prevents the deacetylation
[1]
  selectivity for SIRT6 over other SIRT family members: highly selective for SIRT6
claudin-2
  claudin-2: normalisation
Healthy subjects; [6]
  subjects with TEAEs (number): 24
  subjects with TEAEs (percentage): 73%
Healthy subjects; Part B
  serious adverse events: 1
Healthy subjects; [7]
  subjects with TEAEs (number): 15
  subjects with TEAEs (percentage): 79%
Healthy subjects; Parts A and B
  severity of TEAEs: mild in severity
[2]; human, in vivo
  IMP-related serious or treatment-emergent adverse events: no investigational medicinal product (IMP)-related serious or treatment-emergent adverse events
  dose-dependency in adverse events: nor was there any dose-dependency in adverse events
  rates of TEAEs in non-disease related parameters versus placebo: comparable between the active treatment groups and placebo
  safety and tolerability: safe and well-tolerated
[2]; whole study
  dose-limiting toxicities, systematic safety laboratory changes or deaths: No dose-limiting toxicities, systematic safety laboratory changes or deaths
  relation of serious adverse events to IMU-856: unrelated to IMU-856
  serious adverse events: Two
[3]; daily dosing
  accumulation factor: low accumulation factor
  steady-state plasma concentrations, time to achievement: within the first week
[3]; human, plasma, steady-state
  half-life: 17.4 to 21.5 h
[3]; human, plasma, steady-state, post-dose
  Tmax: 2 to 3 h
[3]; over the 14-day treatment period
  steady-state trough levels: stable steady-state trough levels
[3]; steady-state
  AUC dose dependence: dose proportional increases
  Cmax dose dependence: dose proportional increases
[4]; 80 mg (N=11)
  reduction in villous height: 20.9 μm
[4]; 80 mg once daily
  mean change in villous height: −20.9±34.8 μm
[4]; 160 mg (N=13)
  reduction in villous height: 22.5 μm
[4]; 160 mg once daily
  mean change in villous height: −22.5±51.1 μm
[4]; Baseline to Day 29
  villous height protection versus placebo: protects villous height as compared to placebo, reaching statistical significance
[4]; Day 29, after gluten challenge
  patients with improvement in one Q-MARSH category: two and Two
[4]; change in Q-MARSH score between Baseline and Day 29
  Q-MARSH histological damage: signals of preventing histological damage
Plasma citrulline; 80 mg, baseline to Day 14
  mean change in plasma citrulline: 2.4 ± 6.2 µmol/L
Plasma citrulline; 160 mg, baseline to Day 29
  mean change in plasma citrulline: 2.2 ± 5.3 µmol/L
Plasma citrulline; in words
  citrulline levels: increased citrulline levels dose proportionally; also recorded: increased in both active treatment arms
IL-2
  gluten-induced acute immune response, IL-2 release: dampens gluten-induced acute immune response, as measured by IL-2 release, in a dose-dependent fashion; also recorded: dose-dependent lessening of acute immune response
[5]
  mean corpuscular hemoglobin concentration (MCHC): higher mean corpuscular hemoglobin concentration; also recorded: improvement in red blood cell function
